A word on the EC50: it is the concentration that produces a half-maximal response.

The target of series [1] is T1, GLP-1R (Rattus norvegicus, UniProt P32301).
T1 construct: stably transfected with the expression vector of GLP-1R gene
T1 sequence (P32301 22-463): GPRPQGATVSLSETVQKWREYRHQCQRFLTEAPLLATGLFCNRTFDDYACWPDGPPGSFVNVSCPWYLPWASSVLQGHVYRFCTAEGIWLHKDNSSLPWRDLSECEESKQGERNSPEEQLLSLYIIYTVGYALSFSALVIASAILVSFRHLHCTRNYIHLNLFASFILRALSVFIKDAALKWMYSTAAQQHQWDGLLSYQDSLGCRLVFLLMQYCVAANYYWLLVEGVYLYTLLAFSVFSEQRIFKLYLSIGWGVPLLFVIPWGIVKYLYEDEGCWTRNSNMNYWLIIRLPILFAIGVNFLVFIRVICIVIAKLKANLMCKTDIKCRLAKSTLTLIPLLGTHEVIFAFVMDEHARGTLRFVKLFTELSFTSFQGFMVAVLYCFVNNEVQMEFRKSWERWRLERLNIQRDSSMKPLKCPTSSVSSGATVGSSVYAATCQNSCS
Description: Expression of the luciferase report gene in HEK 293/GLP1R+Luc cells. It counts as cell-based, human. The following applies: for EC50: luciferase report gene, HEK 293/GLP1R+Luc cells, 6 hours. From the text: Upon that GLP-1R binds to GLP-1 or agonists, its Gasubunit is activated to stimulate the adenylate cyclase, which makes the increase in the concentration of intracellular cAMP. Since the promoter region of the proinsulin gene has the cAMP response element, upon binding of cAMP to this response element, the transcription of the proinsulin gene is activated, so as to increase the sensitivity of -- islet cells to glucose, and improve the expression and secretion of insulin (Diabetes, 2000, vol.49:1156-1164). The screening model employs the human embryonal nephric cell strain which is stably transfected with the expression vector of GLP-1R gene and the expression vector of luciferase report gene under the regulation of cAMP response element, to detect its response to the candidate compound (Cell Biology, 1992, Vol.89: 8641-8645; Proc. Natl. Acad. Sci. U.S.A. 1987, Vol.84: 3434-3438). When screening the candidate compounds, the compound which may induce the luciferase report gene to express have the activity of activating GLP-1.
Cell strain: HEK 293/GLP1R+Luc strain which stably express GLP-1R and luciferase (National New Medicaments Screening Center)
HEK 293/GLP1R+Luc cell in 20000 cells/100 μl/well are inoculated into 96-well plate, are cultured at 37[…] overnight with DMEM culture medium containing 10% of fetal calf serum and 500 μg/mL of G418. The candidate compounds wang516-2, wang502, and wang504 are respectively diluted to 2 mM, 1 mM, 0.3 mM, 0.1 mM, 0.03 mM, […], and 0.003 mM, and the other candidate compounds are diluted gradually from 30 mM for 8 times by a ratio of 1:3 to get a concentration gradient (i.e., 30 mM, 10 mM, 3 mM, 1 mM, 0.3 mM, 0.1 mM, 0.03 mM, and 0.01 mM), following by being added into the above 96-well plate at 1 μl/well. Then, the cells are cultured at 37[…] in 5% of CO2for 6 hours. The activity of luciferase is detected according to the specification of Steady-glo™ luciferase analysis system kit, and counting is performed with Victor 2 counting machine. The positive control adopts 30 nM of standard GLP-1.

Series [2] addresses T1, GLP-1R. Description: Ligand-binding activity, competition with 125I-labelled GLP-1 on HEK 293/GLP1R+Luc cells. On the set-up: species or system human. The following applies: for EC50: competition with 125I-labelled GLP-1 (40 pM), 25 °C, 4 hours; for affinity to GLP-1R (in words): receptor-binding experiment, testing concentration range 0.1 nM to 100,000 nM. The procedure:
In order to determine the binding activity of the compound to the ligand, the cells which highly express GLP-1R are prepared, GLP-1 labelled with ^125I is used as the ligand, while adding into the candidate compound. When the candidate compound binds the ^125I-labelled GLP-1 competitively, the isotope labels on the cell membrane reduce. Accordingly, the affinity of the candidate compound to the ligand can be evaluated (J Mol Endocrinol. 2000 Vol.25:321-35; J Biomol Screen, 2000 Vol. 5:377-84).
20 mM of tris-HCl (pH 7.4) (Shanghai Shenggong biological engineering technology LTD), 100 mM of NaCl (Shanghai Chemical agents Cooperation), 15 mM of NaF (Shanghai Chemical agents Cooperation), 2 mM of deoxypyridoxine (Sigma Cooperation), 0.2 mM of phenylmethylsulfonyl fluoride (Sigma Cooperation), aprotinin (Shanghai Chemical agents Cooperation) (1 μg/ml), and leupeptin (Shanghai Chemical agents Cooperation) (1 μg/ml).
The candidate compound is diluted with dimethyl sulphoxide at the concentration gradient of 0.1 nM, 1 nM, 10 nM, 100 nM, 1000 nM, 10,000 nM, and 100,000 nM.
10^5 HEK 293/GLP1R+Luc cells in the logarithmic growth phase are incubated together with the ^125I-labelled GLP-1 positive peptide (the final concentration of 40 pM) in 200 μl of the testing buffer solution at 25 °C for 4 hours, while adding into the non-labeled positive peptide or the candidate compound. The cells are collected with the cell collector, following by washing three times with the washing solution. The scintillation liquid is added into them, and each well is counted with Microbata counter.

The target in series [3] is T1, GLP-1R. Description: Determination of the concentration of intracellular cAMP. It counts as cell-based, human. From the text:
Since the determination of the concentration of intracellular cAMP indirectly by detecting the expression of the report gene is an indirect process, the functional re-screen is directly performed with the cAMP-detecting kit in order to make sure that the compound can surely increase the concentration of intracellular cAMP.
HEK 293/GLP1R+Luc strain which stably express GLP-1R and luciferase (National new medicaments screening center)
HEK 293 cells are inoculated into 96-well plate in 20000 cells/100 μl/well, are cultured at 37[…] overnight. The compound 2f is diluted to 1.00E-03M, 1.00E-04M, 1.00E-05M, 1.00E-06M and 1.00E-07M with dimethyl sulphoxide, following by being inoculated into the above 96-well plate in […] and being cultured at 37 °C with 5% of CO2 for 1 hour. The concentration of intracellular cAMP is detected according to the specification of cAMP-Screen Direct TM system kit.

Molecules are shown by their SMILES.

Regarding `COc1cc(/C=C2/N=C(c3ccc(NC(=O)OC(C)(C)C)cc3)OC2=O)ccc1OC(=O)c1cccs1` [wang520], the “relative activity of luciferase” value at GLP-1R [1] (final concentration of 30 μM, luciferase activity induced by 30 nM standard GLP-1 regarded as 100%, FIG. 1) amounted to 94%. A half-maximal response at GLP-1R [1] (EC50) required 4.6 µM. For the same molecule, at GLP-1R [2], the EC50 is 60 to 100 µM and the “affinity to GLP-1R (in words)” value is on record as “little week”.
Regarding `COc1cc(/C=C2/N=C(c3ccc(NC(C)=O)cc3)OC2=O)ccc1OC(=O)c1cccs1` [wang462], the values for the concentration for a half-maximal effect (EC50) at GLP-1R [1] and on GLP-1R [2] were 11.6 µM and > 100 µM, respectively.
As for `COc1cc(C=C2N=C(c3ccccc3)OC2=O)ccc1OC(=O)c1cccs1` [wang405], the EC50 on GLP-1R [2] was > 100 µM.
On GLP-1R [1], `COc1cc(/C=C2/N=C(c3ccc(NC(=O)C(C)(C)C)cc3)OC2=O)ccc1OC(=O)c1cccs1` [wang504] returned an EC50 of 4.87 µM.
Turning to `COc1cc(/C=C2/N=C(c3ccc(NC(=O)C(O)c4ccccc4)cc3)OC2=O)ccc1OC(=O)c1cccs1` (stereo not shown) [wang554], it took 5.24 µM to reach a half-maximal effect on GLP-1R [1] (EC50). This EC50 and that of the molecule before are within 1.5-fold of each other.
Turning to `COc1cc(/C=C2/N=C(c3ccc(NC(=O)C4CC4)cc3)OC2=O)ccc1OC(=O)c1cccs1` [wang488], the half-maximal effective concentration (EC50) on GLP-1R [1] stood at 6.73 µM.
The molecule `COc1cc(C=C2N=C(c3ccc(NC(=O)C4CCCC4)cc3)OC2=O)ccc1OC(=O)c1cccs1` [wang516] yielded an EC50 at GLP-1R [1] of 6.85 µM. Moreover, at GLP-1R [2], the EC50 was 40 to 80 µM and the “affinity to GLP-1R (in words)” value was “little week”.
For `COc1cc(C=C2N=C(c3ccc([N+](=O)[O-])cc3)OC2=O)ccc1OC(=O)c1cccs1` [wang450], the EC50 on GLP-1R [2] was > 100 µM.
The molecule `CCOc1cc(/C=C2/N=C(c3ccc(NC(C)=O)cc3)OC2=O)ccc1OC(=O)c1cccs1` [2f] had an EC50 at GLP-1R [1] of 13 µM. For the same molecule, the “effect of high concentration on cells (cAMP decreasing trend)” value at GLP-1R [3] (30 μM and 100 μM) is “cellulotoxic effect”. Besides, on GLP-1R [3] (293/GLP-1R cells, 1 hour, FIG. 2), the “concentration of cAMP with increase of compound concentration” value is reported as “exponential increase”. In addition, on GLP-1R [2], the EC50 came to 31 µM and the “affinity to GLP-1R (in words)” value was “better affinity”.
As to `COc1cc(/C=C2/N=C(c3ccc(N)cc3)OC2=O)ccc1OC(=O)c1cccs1` [wang420], the EC50 at GLP-1R [2] was > 100 µM.
In turn, `COc1cc(/C=C2/N=C(c3ccc(NC(=O)C4CCC4)cc3)OC2=O)ccc1OC(=O)c1cccs1` [wang502] returned an EC50 at GLP-1R [1] of 3.31 µM.
Regarding `COc1cc(/C=C2/N=C(c3ccc(NC(=O)c4ccccc4)cc3)OC2=O)ccc1OC(=O)c1cccs1` [wang524], the values for the half-maximal effective concentration (EC50) on GLP-1R [1] and at GLP-1R [2] were 46.5 µM and > 100 µM, respectively.
With `COc1cc(C=C2N=C(c3ccc(NC(=O)Nc4ccc(C5=NC(=Cc6ccc(OC(=O)c7cccs7)c(OC)c6)C(=O)O5)cc4)cc3)OC2=O)ccc1OC(=O)c1cccs1` [wang866], the EC50 on GLP-1R [1] was 54.4 µM; at GLP-1R [2], > 100 µM.

The values are drawn from patent publication US20070043093A1, “Glucagon-like peptide-1 receptor agonists, the preparation and the use of the same” (priority 2003, published 2007).
